# Measured values: ChEMBL document CHEMBL5209566, “Superclomeleon biosensor-based assay for SLC26A9 using HEK293 SLC26A9 JumpIn OE cells” (2022)
# Molecular target: T1, Solute carrier family 26 member 9 (Homo sapiens) (UniProt Q7LBE3)
# T1 sequence (whole entry): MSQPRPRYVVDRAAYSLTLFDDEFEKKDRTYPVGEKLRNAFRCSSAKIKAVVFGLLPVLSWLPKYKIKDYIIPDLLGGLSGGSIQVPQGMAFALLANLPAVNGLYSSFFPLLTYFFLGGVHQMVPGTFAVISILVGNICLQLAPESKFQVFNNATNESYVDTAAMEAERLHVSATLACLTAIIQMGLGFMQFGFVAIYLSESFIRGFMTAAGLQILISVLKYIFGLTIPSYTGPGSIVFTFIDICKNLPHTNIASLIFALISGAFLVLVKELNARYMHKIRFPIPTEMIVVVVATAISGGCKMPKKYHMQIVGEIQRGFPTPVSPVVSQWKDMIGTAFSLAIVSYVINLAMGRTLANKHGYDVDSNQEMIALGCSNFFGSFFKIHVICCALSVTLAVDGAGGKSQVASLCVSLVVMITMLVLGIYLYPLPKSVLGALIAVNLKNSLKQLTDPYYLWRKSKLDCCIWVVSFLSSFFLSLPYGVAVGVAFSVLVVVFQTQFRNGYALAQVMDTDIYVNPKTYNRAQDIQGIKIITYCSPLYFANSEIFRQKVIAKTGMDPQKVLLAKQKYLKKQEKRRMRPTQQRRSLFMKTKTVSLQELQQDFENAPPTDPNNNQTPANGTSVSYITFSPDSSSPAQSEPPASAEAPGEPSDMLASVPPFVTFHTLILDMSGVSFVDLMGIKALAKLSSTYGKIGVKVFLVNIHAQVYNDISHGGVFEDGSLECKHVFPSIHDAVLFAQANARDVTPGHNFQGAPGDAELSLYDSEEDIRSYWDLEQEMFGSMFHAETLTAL
# Experiment: Chloride uptake by the Anion Transporter/Exchanger Protein 9 (SLC26A9) as assessed by a Cl- sensitive FRET (Fluorescence Resonance Energy Transfer) sensor (SuperClomeleon) in HEK-293 cells stably transfected with SLC26A9 (PubChem AID: 1794832)
# Format: functional, cell-based
# Conditions: HEK293
Inhibition (500 µM) [%],SMILES,proof of principle
–,Cl,"Substrate. In Comparison To Wild-Type, Cells Expressing Slc26A9 Showed A Specific Transporter Activity, Upon Substrate Addition, Detected As Significantly Higher Sensor Fluorescence Quenching."
> 30,O=C(O)c1cccnc1Nc1cccc(C(F)(F)F)c1,–
